Reference: the NIST ThermoML archive (doi:10.1021/je050399c)
Numbers after ± are expanded uncertainties.

Conditions: Fluid (supercritical or subcritical phases), Vibrating wire viscometry

N#N [nitrogen]
Conditions	viscosity [mPa·s]
348.15 K, 25007 kPa	0.02543 ± 0.00012
348.15 K, 26007 kPa	0.02571 ± 0.00012
348.15 K, 27005 kPa	0.02598 ± 0.00012
348.15 K, 27995 kPa	0.02628 ± 0.00012
348.15 K, 29000 kPa	0.02655 ± 0.00012
348.15 K, 30021 kPa	0.02687 ± 0.00012
348.15 K, 31015 kPa	0.02717 ± 0.00012
348.15 K, 32013 kPa	0.02747 ± 0.00013
348.15 K, 33000 kPa	0.02776 ± 0.00013
348.15 K, 34013 kPa	0.02808 ± 0.00013
348.15 K, 34919 kPa	0.02833 ± 0.00014
373.15 K, 100.3 kPa	0.02102 ± 0.0001
373.15 K, 200.1 kPa	0.02106 ± 9.1e-05
373.15 K, 301 kPa	0.02108 ± 9e-05
373.15 K, 400.2 kPa	0.02109 ± 8.7e-05
373.15 K, 600.7 kPa	0.0211 ± 8.7e-05
373.15 K, 800.6 kPa	0.02112 ± 8.8e-05
373.15 K, 1000.5 kPa	0.02114 ± 8.8e-05
373.15 K, 1501.2 kPa	0.0212 ± 8.8e-05
373.15 K, 2002.1 kPa	0.02125 ± 8.8e-05
373.15 K, 2501.4 kPa	0.02131 ± 8.9e-05
373.15 K, 3003.5 kPa	0.02137 ± 8.9e-05
373.15 K, 3503.3 kPa	0.02144 ± 9e-05
373.15 K, 4010 kPa	0.0215 ± 9e-05
373.15 K, 4501.6 kPa	0.02157 ± 9.1e-05
373.15 K, 5007.4 kPa	0.02164 ± 9.2e-05
373.15 K, 5504.7 kPa	0.02172 ± 9.3e-05
373.15 K, 6000.6 kPa	0.0218 ± 9.3e-05
373.15 K, 6507.4 kPa	0.02188 ± 9.3e-05
373.15 K, 7006.9 kPa	0.02194 ± 9.3e-05
373.15 K, 7500.7 kPa	0.02203 ± 9.5e-05
373.15 K, 8002.7 kPa	0.02211 ± 9.5e-05
373.15 K, 8504.3 kPa	0.0222 ± 9.5e-05
373.15 K, 9002.1 kPa	0.02228 ± 9.7e-05
373.15 K, 9499.1 kPa	0.02238 ± 9.7e-05
373.15 K, 10010 kPa	0.02247 ± 9.8e-05
373.15 K, 11006 kPa	0.02267 ± 9.9e-05
373.15 K, 12000 kPa	0.02284 ± 0.0001
373.15 K, 13002 kPa	0.02307 ± 0.0001
373.15 K, 14010 kPa	0.02327 ± 0.0001
373.15 K, 15013 kPa	0.02348 ± 0.0001
373.15 K, 16013 kPa	0.0237 ± 0.00011
373.15 K, 17018 kPa	0.02392 ± 0.00011
373.15 K, 18001 kPa	0.02414 ± 0.00011
373.15 K, 19005 kPa	0.0244 ± 0.00011
373.15 K, 19977 kPa	0.02462 ± 0.00011
373.15 K, 21015 kPa	0.02487 ± 0.00011
373.15 K, 22011 kPa	0.0251 ± 0.00011
373.15 K, 23004 kPa	0.02536 ± 0.00011
373.15 K, 24005 kPa	0.02559 ± 0.00011
373.15 K, 25012 kPa	0.02584 ± 0.00012
373.15 K, 26006 kPa	0.0261 ± 0.00012
373.15 K, 27007 kPa	0.02635 ± 0.00012
373.15 K, 28017 kPa	0.02662 ± 0.00012
373.15 K, 29005 kPa	0.02688 ± 0.00012
373.15 K, 30003 kPa	0.02714 ± 0.00012
373.15 K, 31001 kPa	0.02741 ± 0.00012
373.15 K, 32010 kPa	0.02765 ± 0.00012
373.15 K, 33011 kPa	0.02792 ± 0.00013
373.15 K, 34006 kPa	0.02821 ± 0.00013
373.15 K, 34834 kPa	0.02844 ± 0.00013
398.15 K, 100.1 kPa	0.02203 ± 0.0001
398.15 K, 200.9 kPa	0.02207 ± 9.4e-05
398.15 K, 300.8 kPa	0.02209 ± 9.5e-05
398.15 K, 400.5 kPa	0.0221 ± 9.3e-05
398.15 K, 600.3 kPa	0.02212 ± 9.1e-05
398.15 K, 800.5 kPa	0.02213 ± 9e-05
398.15 K, 1001 kPa	0.02215 ± 9.2e-05
398.15 K, 1501.8 kPa	0.0222 ± 9.1e-05
398.15 K, 2001.3 kPa	0.02225 ± 9.2e-05
398.15 K, 2495.8 kPa	0.02231 ± 9.2e-05
398.15 K, 3000.7 kPa	0.02236 ± 9.3e-05
398.15 K, 3501.8 kPa	0.02242 ± 9.3e-05
398.15 K, 4002.8 kPa	0.02247 ± 9.3e-05
398.15 K, 4503.1 kPa	0.02254 ± 9.4e-05
398.15 K, 5003.7 kPa	0.0226 ± 9.4e-05
398.15 K, 5502.6 kPa	0.02266 ± 9.5e-05
398.15 K, 6004.9 kPa	0.02273 ± 9.5e-05
398.15 K, 6501.8 kPa	0.0228 ± 9.5e-05
398.15 K, 7005.3 kPa	0.02287 ± 9.6e-05
398.15 K, 7507.1 kPa	0.02294 ± 9.7e-05
398.15 K, 8007.6 kPa	0.02302 ± 9.8e-05
398.15 K, 8501 kPa	0.02311 ± 9.8e-05
398.15 K, 9010.3 kPa	0.02317 ± 9.7e-05
398.15 K, 9506.9 kPa	0.02324 ± 9.9e-05
398.15 K, 10005 kPa	0.02334 ± 0.0001
398.15 K, 11003 kPa	0.0235 ± 0.0001
398.15 K, 11989 kPa	0.02369 ± 0.0001
398.15 K, 13002 kPa	0.02386 ± 0.0001
398.15 K, 13997 kPa	0.02405 ± 0.0001
398.15 K, 15013 kPa	0.02423 ± 0.0001
398.15 K, 16005 kPa	0.02443 ± 0.00011
398.15 K, 17010 kPa	0.02463 ± 0.00011
398.15 K, 18010 kPa	0.02482 ± 0.00011
398.15 K, 19003 kPa	0.02503 ± 0.00011
398.15 K, 20019 kPa	0.02525 ± 0.00011
398.15 K, 21009 kPa	0.02546 ± 0.00011
398.15 K, 22011 kPa	0.02568 ± 0.00011
398.15 K, 23034 kPa	0.0259 ± 0.00011
398.15 K, 23993 kPa	0.0261 ± 0.00011
398.15 K, 25001 kPa	0.02634 ± 0.00012
398.15 K, 25977 kPa	0.02657 ± 0.00012
398.15 K, 27031 kPa	0.02679 ± 0.00012
398.15 K, 28028 kPa	0.02703 ± 0.00012
398.15 K, 29028 kPa	0.02728 ± 0.00012
398.15 K, 29911 kPa	0.02747 ± 0.00012
398.15 K, 31023 kPa	0.02773 ± 0.00012
398.15 K, 32013 kPa	0.02796 ± 0.00012
398.15 K, 33034 kPa	0.02822 ± 0.00012
398.15 K, 34043 kPa	0.02845 ± 0.00012
398.15 K, 35040 kPa	0.02872 ± 0.00013
423.15 K, 100.1 kPa	0.02302 ± 0.00011
423.15 K, 200.1 kPa	0.02305 ± 9.9e-05
423.15 K, 300.4 kPa	0.02307 ± 9.8e-05
423.15 K, 400.1 kPa	0.02309 ± 9.6e-05
423.15 K, 600.2 kPa	0.0231 ± 9.4e-05
423.15 K, 800.3 kPa	0.02312 ± 9.4e-05
423.15 K, 1001.1 kPa	0.02313 ± 9.4e-05
423.15 K, 1502.5 kPa	0.02318 ± 9.5e-05
423.15 K, 1997.8 kPa	0.02322 ± 9.5e-05
423.15 K, 2498 kPa	0.02327 ± 9.5e-05
423.15 K, 3002.3 kPa	0.02332 ± 9.6e-05
423.15 K, 3505.8 kPa	0.02337 ± 9.6e-05
423.15 K, 4004 kPa	0.02342 ± 9.7e-05
423.15 K, 4501.2 kPa	0.02348 ± 9.7e-05
423.15 K, 5002.7 kPa	0.02353 ± 9.7e-05
423.15 K, 5502.8 kPa	0.02358 ± 9.8e-05
423.15 K, 6002.2 kPa	0.02365 ± 9.9e-05
423.15 K, 6502.3 kPa	0.02372 ± 9.8e-05
423.15 K, 7003 kPa	0.02377 ± 9.8e-05
423.15 K, 7497.9 kPa	0.02384 ± 0.0001
423.15 K, 8004.2 kPa	0.02391 ± 0.0001
423.15 K, 8503 kPa	0.02398 ± 0.0001
423.15 K, 9004.2 kPa	0.02405 ± 0.0001
423.15 K, 9504.3 kPa	0.02412 ± 0.0001
423.15 K, 10006 kPa	0.02418 ± 0.0001
423.15 K, 11004 kPa	0.02434 ± 0.0001
423.15 K, 11994 kPa	0.02451 ± 0.0001
423.15 K, 13002 kPa	0.02466 ± 0.0001
423.15 K, 14011 kPa	0.02483 ± 0.00011
423.15 K, 15002 kPa	0.025 ± 0.00011
423.15 K, 16009 kPa	0.02517 ± 0.00011
423.15 K, 17009 kPa	0.02535 ± 0.00011
423.15 K, 17999 kPa	0.02554 ± 0.00011
423.15 K, 19008 kPa	0.02573 ± 0.00011
423.15 K, 20008 kPa	0.02591 ± 0.00011
423.15 K, 20987 kPa	0.02609 ± 0.00011
423.15 K, 22009 kPa	0.0263 ± 0.00011
423.15 K, 23014 kPa	0.02651 ± 0.00011
423.15 K, 24019 kPa	0.02669 ± 0.00012
423.15 K, 25024 kPa	0.02691 ± 0.00012
423.15 K, 26017 kPa	0.02711 ± 0.00012
423.15 K, 27035 kPa	0.02732 ± 0.00012
423.15 K, 28010 kPa	0.02753 ± 0.00012
423.15 K, 29015 kPa	0.02774 ± 0.00012
423.15 K, 30011 kPa	0.02794 ± 0.00012
423.15 K, 31001 kPa	0.02815 ± 0.00012
423.15 K, 31988 kPa	0.02837 ± 0.00012
423.15 K, 32989 kPa	0.02859 ± 0.00012
423.15 K, 34020 kPa	0.02882 ± 0.00012
423.15 K, 35050 kPa	0.02903 ± 0.00012
